# Measurements reported in ChEMBL document CHEMBL1144214, “Structure-activity relationships of compounds targeting mycobacterium tuberculosis 1-deoxy-D-xylulose 5-phosphate synthase” (Bioorg Med Chem Lett, 2008).
# What was measured:
# [1] = molecular target: T1, 1-deoxy-D-xylulose-5-phosphate synthase (Mycobacterium tuberculosis, UniProt P9WNS3); assay: Inhibition of Mycobacterium tuberculosis cloned 1-deoxy-D-xylulose-5-phosphate synthase expressed in Escherichia coli
# T1 sequence (P9WNS3 whole entry): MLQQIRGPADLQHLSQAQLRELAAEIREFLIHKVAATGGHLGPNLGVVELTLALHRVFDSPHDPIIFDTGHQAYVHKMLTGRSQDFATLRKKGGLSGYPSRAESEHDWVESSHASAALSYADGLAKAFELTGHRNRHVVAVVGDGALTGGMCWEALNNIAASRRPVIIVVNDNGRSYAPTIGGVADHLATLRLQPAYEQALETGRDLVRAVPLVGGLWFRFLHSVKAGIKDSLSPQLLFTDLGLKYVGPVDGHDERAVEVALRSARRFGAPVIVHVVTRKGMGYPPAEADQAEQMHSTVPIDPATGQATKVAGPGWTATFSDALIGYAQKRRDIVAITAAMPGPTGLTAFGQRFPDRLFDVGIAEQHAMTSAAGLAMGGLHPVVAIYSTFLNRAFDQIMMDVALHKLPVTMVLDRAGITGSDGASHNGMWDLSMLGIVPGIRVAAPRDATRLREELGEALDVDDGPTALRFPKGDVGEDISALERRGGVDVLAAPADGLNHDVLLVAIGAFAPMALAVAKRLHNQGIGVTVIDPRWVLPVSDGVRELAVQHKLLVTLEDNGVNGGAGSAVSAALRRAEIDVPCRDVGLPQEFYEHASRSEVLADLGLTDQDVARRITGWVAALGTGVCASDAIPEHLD
# [2] = system: Mycobacterium tuberculosis; assay: Antituberculosis activity against Mycobacterium tuberculosis; format: functional
# [3] = Selectivity index, ratio of IC50 for african green monkey Vero cells to MIC for Mycobacterium tuberculosis; format: functional
# Vero = assay: Cytotoxicity against african green monkey Vero cells; format: cell-based; conditions: Chlorocebus sabaeus
# Transketolase = molecular target: T2, Transketolase (Homo sapiens, UniProt P29401); assay: Inhibition of human recombinant transketolase expressed in Escherichia coli
# T2 sequence (P29401 whole entry): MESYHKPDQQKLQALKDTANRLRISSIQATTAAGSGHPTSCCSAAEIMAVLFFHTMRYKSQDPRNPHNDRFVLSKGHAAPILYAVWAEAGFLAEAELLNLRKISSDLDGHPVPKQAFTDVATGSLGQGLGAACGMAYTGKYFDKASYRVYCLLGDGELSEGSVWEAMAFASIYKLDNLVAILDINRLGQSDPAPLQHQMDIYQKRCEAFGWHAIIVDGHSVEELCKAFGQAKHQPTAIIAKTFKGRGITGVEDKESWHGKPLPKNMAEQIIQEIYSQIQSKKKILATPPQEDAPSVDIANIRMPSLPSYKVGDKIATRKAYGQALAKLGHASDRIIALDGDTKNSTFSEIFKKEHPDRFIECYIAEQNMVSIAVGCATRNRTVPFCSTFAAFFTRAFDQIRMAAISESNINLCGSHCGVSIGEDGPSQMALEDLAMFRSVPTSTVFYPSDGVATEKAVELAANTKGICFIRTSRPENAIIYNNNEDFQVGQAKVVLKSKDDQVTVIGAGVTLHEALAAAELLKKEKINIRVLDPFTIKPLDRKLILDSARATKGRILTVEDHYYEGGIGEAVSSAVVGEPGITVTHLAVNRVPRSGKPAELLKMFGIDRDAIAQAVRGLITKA
Compound,IC50 [1] [µM],further results
Oc1cc(-c2ccccc2)nc2c(-c3ccccc3)c(C(F)(F)F)nn12,23,
COc1ccc(-c2c(C(F)(F)F)nn3c(O)cc(-c4ccccc4)nc23)cc1,20.2,
CCOC(=O)Cc1c(C)nc2c(-c3ccccc3)cnn2c1O,> 200,
Brc1cccc(-c2cnn3c(-c4ccccc4)cc(-c4ccccc4)nc23)c1,> 200,
Cc1nn2c(=O)cc(CSc3ccc(Cl)cc3)[nH]c2c1-c1ccccc1,63.7,
Cc1nn2c(=O)cc(-c3ccccc3)[nH]c2c1-c1ccc(Cl)cc1,34.2,MIC [2]: 14.2 µM; Selectivity Index [3]: 4.6; IC50 (Vero): 39.5 µM
COCc1cc(=O)n2nc(C)c(-c3ccc(Cl)cc3)c2[nH]1,> 200,
Cc1nn2c(=O)cc(CSc3nnnn3-c3ccccc3)[nH]c2c1-c1ccc(Cl)cc1,55.1,
O=c1cc(Cc2ccccc2)[nH]c2c(-c3ccccc3)c(C(F)(F)F)nn12,71.1,
COCc1cc(=O)n2ncc(-c3ccc(Cl)cc3)c2[nH]1,> 200,
Cc1cc(=O)n2ncc(-c3ccc(Cl)cc3)c2[nH]1,> 200,
COc1ccc(-c2cc(=O)n3nc(C)c(-c4ccc(F)cc4)c3[nH]2)cc1,10.6,MIC [2]: 7.7 µM; IC50 (Vero): 35.6 µM
Cc1nn2c(=O)cc(-c3ccccc3)[nH]c2c1-c1ccccc1,30.6,
Cc1nn2c(=O)cc(-c3ccc4ccccc4c3)[nH]c2c1-c1ccccc1,19.5,
O=c1cc(CCl)[nH]c2c(-c3ccccc3)cnn12,> 200,
COC(=O)Cc1cc(=O)n2nc(C(F)(F)F)c(-c3ccc(Br)cc3)c2[nH]1,73,
Cc1cc(=O)n2nc(C(F)(F)F)c(-c3ccc(Cl)cc3)c2[nH]1,98.4,
COc1ccc(-c2cc(=O)n3nc(C)c(-c4ccc(Cl)cc4)c3[nH]2)cc1,10.9,MIC [2]: 7.6 µM; IC50 (Vero): 16 µM
O=c1cc(Cc2ccccc2)[nH]c2c(-c3ccc(Cl)cc3)cnn12,114,IC50 (Transketolase): 3.9 µM
COc1ccc(-c2cc(=O)n3nc(C)c(-c4ccc(OC)cc4)c3[nH]2)cc1,42.4,MIC [2]: 61.8 µM; Selectivity Index [3]: 2.1; IC50 (Vero): 80.9 µM
CCc1nn2c(=O)cc(-c3ccc(OC)cc3)[nH]c2c1-c1ccc(Cl)cc1,19.7,
FC(F)(F)c1cc(-c2ccc(Cl)cc2)nc2c(-c3ccc(Cl)cc3)cnn12,> 200,
O=c1cc(Cc2ccccc2)[nH]c2c(-c3ccc(Cl)cc3)c(C(F)(F)F)nn12,14,
Cc1nn2c(=O)cc(CSc3ccc(Cl)cc3)[nH]c2c1-c1ccc(Cl)cc1,41.4,
COc1ccccc1-c1cc(=O)n2nc(C)c(-c3ccc(Br)cc3)c2[nH]1,53.5,
COc1ccc(-c2c(C)nn3c(=O)cc(-c4ccccc4)[nH]c23)cc1,90.7,
Cc1[nH]c2c(-c3ccc(Cl)cc3)c(C(F)(F)F)nn2c(=O)c1Cc1ccccc1,> 200,
Cc1cc(=O)n2nc(C(F)(F)F)c(-c3ccc(Br)cc3)c2[nH]1,> 200,
